Source: article PMC12587390, “Metabolite Identification Data in Drug Discovery, Part 1: Data Generation and Trend Analysis” (Molecular Pharmaceutics, 2025)
Values after ≈ are worked out from the molar mass of the structure shown.

Assays:
[1] = MetID on in vivo dog samples (plasma, urine); parameters: species or system dog (beagles); details: for % of the total MS area, Dog Plasma (Female): after Cmpd 28, sampled at 3 h and 30 min
Method: (§1) The workup procedure could vary somewhat depending on the compound and dose, but the general procedure was as follows: Two volumes of ACN/methanol (1:1, v:v) were added to the plasma samples and vortex-mixed to precipitate the proteins. Thereafter, the samples were centrifuged for 10 min (at 10,000 g and 4 °C), and the supernatants were diluted with one volume of water. The urine samples were diluted with one volume of ACN/methanol (1:1, v:v) and centrifuged for 10 min (at 10,000 g and 4 °C), followed by a 1:1 dilution with water.
(§2) Structural characterization of metabolites and metabolite profiling were performed using the Waters Acquity ultraperformance liquid chromatography (UPLC) system fitted to a Waters High-Resolution Mass Spectrometer (MS) (Xevo G2-S, Synapt G2-Si, or a Synapt XS MS). The Waters MS systems, equipped with an electrospray ionization (ESI) source, were operated in positive-ion sensitivity mode over a mass range m/z 50–1200 and in negative-ion sensitivity mode over a mass range m/z of 50–1200.
(§3) The reversed-phase gradient elution was performed on an Acquity U(H)-PLC BEH C18 column (2.1 × 100 mm, 1.7 μm, Waters) set at 45 °C. The mobile phases consisted of 0.1% FA in water (A) and ACN (B). […] The injection volume was 2 μL. The MS settings were optimized for the respective MS instrument. […] A scan time of 0.1 s was used, and data were acquired in centroid mode. Collision energy was set to “off” for the low-energy function, whereas in the high-energy MSe functions, the collision energies were typically ramped from 15 to 35 V in the trap cell, with constant collision energies of 20 V in their transfer cells. Cone voltage was set to 25 V for both low- and high-energy functions. For dedicated MS/MS, the m/z of the molecular ion was selected in the quadrupole, and the mass range for fragmentation analysis was typically set between 50 and 1200. The collision energies were either the same as those stated above for MSe data generation or optimized for a specific metabolite. Tune parameters for all MS analyses consisted of a capillary energy of 0.5 kV, sampling cone energy of 40 V, source temperature of 150 °C, desolvation temperature of 550 °C, cone gas flow of 0 L/h, desolvation gas flow of 1200 L/h, and nebulizer pressure of 6.5 bar.
(§4) Metabolite identification was conducted by processing the generated data using the MetaboLynx XS browser (Waters), MassMetaSite and the web interface ONIRO (Mass Analytica). […] Accurate masses of metabolites were determined from the protonated molecules in the positive ESI time-of-flight MS (ESI–TOF–MS) mode and from the deprotonated molecules in the negative ESI–TOF–MS mode. […] For those metabolites where no MS/MS data could be acquired, identification was based on the accurate mass of the molecular ion and the fragmentation seen in the MSe spectrum. Relative amounts of detected metabolites were calculated as % of the total MS area by dividing the MS peak area for the metabolite (or parent compound) by the combined MS peak area for the parent compound and all identified metabolites.

[2] = MetID on in vivo rat plasma samples; parameters: species or system rat (Han Wistar); details: after Cmpd 28; sampled at 4 h
Method: as §1, §2, §3, §4

dog hepatocytes = assay: Metabolite identification in dog hepatocyte incubations; assay type: in vitro ADME; details: dog hepatocytes, incubated for 120 min
Method: (§5) Cryopreserved, pooled primary human, dog, and rat hepatocytes were obtained from BioIVT (previously Celsis IVT). L-15 Leibovitz buffer was placed in a water bath to reach 37 °C. Cryopreserved hepatocytes were transferred from a −150 °C freezer on dry ice and immediately immersed in a preheated water bath kept at 37 °C for thawing. When only a small ice crystal could be seen, the content was emptied into a 50 mL falcon tube filled with warm buffer (maximum four vials/falcon tube). The suspension was centrifuged at room temperature for 3 min at 50 g. The supernatant was removed, the pellet was resuspended in a small volume of buffer, and the falcon tube was refilled with buffer, followed by another centrifugation to wash away any remaining storage buffer. Thereafter, the supernatant was removed, and the pellet was dissolved in a small volume of buffer and diluted to a concentration of about 3–5 million cells/mL. After counting the cells using a Casy cell counter, the suspension was diluted to 1 million viable cells/mL and kept at room temperature until use. The viability cutoff was 80%.
(§6) An aliquot of 245 μL of hepatocyte suspension was added to a round-bottomed 96-deep-well plate using a manual multipipette. The deep-well plate was preincubated for 15 min at 37 °C and 13 Hz. Substrate solutions of the assay compounds were prepared by the robot in a 96-well plate as follows: 4 μL of 10 mM DMSO stock solution, followed by the addition of 96 μL of ACN:water (1:1, v:v) and mixing by shaking. 50 μL from each well were transferred to and combined in a new plate, resulting in 100 μL per well and a dilution of 1:1.
(§7) The reaction was started by the addition of 5 μL of 200 μM substrate solution to the preheated hepatocyte suspension, resulting in a final substrate concentration of 4 μM (0.04% DMSO, <0.5% ACN). The incubation was continued at 37 °C and 13 Hz. At each time point (0, 40, and 120 min), a 50 μL sample was taken out and quenched in 200 μL of cold ACN:methanol (1:1, v:v), and the stopped plates were centrifuged for 20 min (set at 4 °C and 4000 g). The supernatant was diluted by taking 50 μL and mixing it with 100 μL of water. Incubations of the positive controls, albendazole and dextromethorphan, were performed in parallel as described above.
as §2
(§8) The reversed-phase gradient elution was performed on an Acquity U(H)-PLC BEH C18 column (2.1 × 100 mm, 1.7 μm, Waters) set at 45 °C. The mobile phases consisted of 0.1% FA in water (A) and ACN (B). […] The injection volume was 2 μL. The MS settings were optimized for the respective MS instrument. […] A scan time of 0.1 s was used, and data were acquired in centroid mode. Collision energy was set to “off” for the low-energy function, whereas in the high-energy MSe functions, the collision energies were typically ramped from 15 to 35 V in the trap cell, with constant collision energies of 20 V in their transfer cells. Cone voltage was set to 25 V for both low- and high-energy functions. For dedicated MS/MS, the m/z of the molecular ion was selected in the quadrupole, and the mass range for fragmentation analysis was typically set between 50 and 1200. The collision energies were either the same as those stated above for MSe data generation or optimized for a specific metabolite.

human hepatocytes [3] = assay: Metabolite identification in human hepatocyte incubations; assay type: in vitro ADME; details: 4 μM
Method: as §5, §6, §7, §2, §8

human hepatocytes [4] = assay: Metabolic stability in human hepatocytes (HH CLint); assay type: in vitro ADME; details: 37 °C, 2 h
Method: Metabolic stability in human hepatocytes (HH CLint) was measured by incubating the cells with the test compound at 37 °C for 2 h. An aliquot of the mixture was taken at typically nine defined time points, and the metabolic reaction was stopped by adding ACN. The samples were centrifuged, and the supernatant was analyzed via LC-MS/MS. Intrinsic clearance (CLint) was calculated from the disappearance rate of the parent compound. ,

[5] = Thermodynamic solubility, shake-flask; details: 10 mM sodium phosphate buffer, 25 °C, pH 7.4, aqueous buffer, thermodynamic from solid
Method: Solubility was measured as the thermodynamic solubility using a shake-flask approach. Here, DMSO was evaporated from the compound stock solution as the first step. The “dried” compounds were then placed into 10 mM sodium phosphate buffer, adjusted to pH 7.4, and equilibrated at 25 °C for 24 h. The samples were centrifuged, and the solution was analyzed by LC-MS/MS to determine the amount of compound in solution.

In the case of `Cc1cc(-c2ccc(C(=O)[C@@H]3CCCC[C@H]3C(=O)Nc3c[nH]nc3C)cc2)n[nH]1` [Cmpd 28 M11], the “% of the total MS area, Dog Plasma (Female)” value [1] is reported as 0.5%, the “% of the total MS area, Rat Plasma (Female)” value [2] is reported as less than 1% and the “% of the total MS area, Rat Plasma (Male)” value [2] is reported as 1%.
In the case of `CC(=O)Nc1cn(C)nc1C` [Cmpd 28 M12], the “% of the total MS area, Rat Plasma (Female)” value [2] is reported as 1% and the “% of the total MS area, Rat Plasma (Male)” value [2] is reported as 1%.
In the case of `Cc1cc(-c2ccc(C(=O)[C@@H]3CCCC[C@H]3C(=O)Nc3cn(C)nc3C)cc2)n[nH]1` [Cmpd 28, Cc1cc(-c2ccc(C(=O)[C@@H]3CCCC[C@H]3C(=O)Nc3cn(C)nc3C)cc2)n[nH]1], the “% of the total MS area, Dog Plasma (Female)” value [1] is reported as 34%.
In the case of `CN(C(=O)c1ccc(Cl)cc1)C(CN1CC(O)C1)C1CC1` (centres unmarked) [Cmpd 47, CN(C(=O)c1ccc(Cl)cc1)[C@H](CN1CC(O)C1)C1CC1], the “Parent, % of the total MS area” value ([1]; dog plasma, sampled at 30 min) is reported as 5%, the “Parent, % of the total MS area” value ([1]; dog urine, sampled at 7–24 h) is reported as 5% and the “Parent, % of the total MS area” value (dog hepatocytes) is reported as 83%.
With `CC(C)C(CN1CC(O)C1)N(C)C(=O)c1ccc(Cl)cc1` (centres unmarked) [Cmpd 50, CC(C)[C@@H](CN1CC(C1)O)N(C)C(=O)c2ccc(cc2)Cl] the “Metabolites detected in plasma” value ([1]; dog plasma) was “No metabolites”, the “Parent, % of the total MS area” value ([1]; dog plasma, sampled at 60 min) was greater than 99% and the “Parent, % of the total MS area” value ([1]; dog urine, sampled at 7–24 h) was 10%. The “Parent, % of the total MS area” value (dog hepatocytes) was 73%.
In the case of `CCCC(CN1CC(O)C1)N(C)C(=O)c1ccc(Cl)cc1` (centres unmarked) [Cmpd 51, CCC[C@@H](CN1CC(O)C1)N(C)C(=O)c1ccc(Cl)cc1], the “N-oxide, % of the total MS area” value ([1]; dog plasma, sampled at 60 min) is reported as “not observed”, the “Parent, % of the total MS area” value ([1]; dog plasma, sampled at 60 min) is reported as 20% and the “N-oxide, % of the total MS area” value ([1]; dog urine, sampled at 7–24 h) is reported as “not observed”. For the same compound, the “Parent, % of the total MS area” value ([1]; dog urine, sampled at 7–24 h) was 22% and the “Parent, % of the total MS area” value (dog hepatocytes) was 80%.
For `CN(C(=O)c1ccc(C#N)cc1)C(CN1CC(O)C1)c1ccccc1` (centres unmarked) [Cmpd 55, CN(C(=O)c1ccc(C#N)cc1)[C@H](CN1CC(O)C1)c1ccccc1], the “N-oxide, % of the total MS area” value ([1]; dog plasma, sampled at 60 min) was “not observed”, the “Parent, % of the total MS area” value ([1]; dog plasma, sampled at 60 min) was 49% and the “N-oxide, % of the total MS area” value ([1]; dog urine, sampled at 7–24 h) was “not observed”. The “Parent, % of the total MS area” value ([1]; dog urine, sampled at 7–24 h) was 61%, the “N-oxide, % of the total MS area” value (dog hepatocytes) was “no N-oxidation was seen” and the “Parent, % of the total MS area” value (dog hepatocytes) was 97%.
For `COc1ccc(-c2nnc(C(=O)N3CC(Oc4ccc(CN(C)C)c(C)c4)C3)o2)cc1` [Cmpd 67, COc1ccc(-c2nnc(C(=O)N3CC(Oc4ccc(CN(C)C)c(C)c4)C3)o2)cc1], the “Metabolites / metabolic pathways identified” value (human hepatocytes [3]) was “N- and O-demethylation are major metabolic pathways” and the “HH CLint” value (human hepatocytes [4]) was 16 μL/min/1E6.
For `COc1ccc(-c2nnc(C(=O)N3CC(Oc4ccc(CN5CC(C)(O)C5)c(C)c4)C3)o2)cc1` [Cmpd 81, COc1ccc(-c2nnc(C(=O)N3CC(Oc4ccc(CN5CC(C)(O)C5)c(C)c4)C3)o2)cc1], the “Metabolites / metabolic pathways identified” value (human hepatocytes [3]) was “O-demethylation pathway remains the major metabolic route”, the solubility at 24 h [5] was 71 µM (≈ 33 µg/mL) and the “HH CLint” value (human hepatocytes [4]) was 17 μL/min/1E6.
